US9096624B2 (OSI Pharmaceuticals, LLC, priority 2009, dated 2015)
Each block holds one molecule with its values, some of them ahead of it.

Key:
FAK [1] = molecular target: T1, FAK (Homo sapiens, UniProt Q05397); experiment: Cell-based capture ELISA for inhibition of FAK autophosphorylation [pY397] in MiaPaCa2 cells
Experimental: Cell-Based Assays for Inhibition of FAK Autophosphorylation: MiaPaCa2 and U87MG
ELISA kit from Invitrogen (KHO0441).
Reagents Provided in Biosource FAK [pY397]
The cells were then suspended in cell assay medium.

FAK [2] = molecular target: T1, FAK; experiment: biochemical
FAK [3] = molecular target: T1, FAK; experiment: Cell-based capture ELISA for inhibition of FAK autophosphorylation [pY397] in U87MG cells
FAK [4] = molecular target: T1, FAK; experiment: Biochemical HTRF (FRET) assay of FAK kinase activity; conditions: 100 uM ATP; biotinylated PGT substrate; read-out: Mean FAK Biochem FRET IC50 (100 uM ATP)
Experimental: Biochemical HTRF (FRET) Assay Protocol
The ability of compounds to inhibit the kinase activity of recombinant FAK enzyme was determined by a HTRF (FRET) assay using Biotinylated PGT (B*PGT) as a peptide substrate. […] The reaction is stopped after 1 h and phosphotyrosine content of Biotin*PGT is measured using anti-phosphotyrosine specific Mab label with Eu3+-cryptate (Cisbio) and XL665 labeled streptavidin (Cisbio) by Homogeneous Time-Resolved Fluorescence (HTRF) method.
The Stock Reagents used are as follows:
Enzyme Buffer Reaction Buffer plus 0.03% BSA.
Development Buffer: 1 part 200 mM EDTA/50 mM Tris-HCl pH 7.4; 2 parts 1M KF; 0.07% BSA.
Assay Protocol: The compounds were serially diluted from 10 uM to […] (1:5 dil, 10 points) in kinase buffer (1×) containing 3% DMSO and added 5 uL to each well of a 384-well plate except negative and positive control wells. Only DMSO was added to positive and negative control wells. For negative control wells, no ATP was added but only 5 uL of B*PGT was added. B*PGT (final conc 7.5 ng/well) and ATP (final conc 100 uM) was added in 5 uL to all wells except negative control wells. Reaction was started by adding FAK enzyme (final conc 0.2 ng/well) in 5 ul of enzyme buffer per well and incubated at RT for 1 h. Phospho-tyrosine content of B*BGT was detected by adding PT66-Cryptate (1:100 dil) and XL665 conjugated streptavidin (1:100 dil) to each well in 7.5 uL development buffer and incubating for 1 h at RT. The plate was read on Victor machine

[5] = MIA-PaCa2 cells, + 50% mouse plasma (Table 3), read-out: Mean FAK Cell Mechanistic IC50 + 50% mP MIA-PaCa2
[6] = Mean FAK Cell Mechanistic IC50 + 50% mP U87MG, + 50% mouse plasma

T1 sequence (Q05397 whole entry): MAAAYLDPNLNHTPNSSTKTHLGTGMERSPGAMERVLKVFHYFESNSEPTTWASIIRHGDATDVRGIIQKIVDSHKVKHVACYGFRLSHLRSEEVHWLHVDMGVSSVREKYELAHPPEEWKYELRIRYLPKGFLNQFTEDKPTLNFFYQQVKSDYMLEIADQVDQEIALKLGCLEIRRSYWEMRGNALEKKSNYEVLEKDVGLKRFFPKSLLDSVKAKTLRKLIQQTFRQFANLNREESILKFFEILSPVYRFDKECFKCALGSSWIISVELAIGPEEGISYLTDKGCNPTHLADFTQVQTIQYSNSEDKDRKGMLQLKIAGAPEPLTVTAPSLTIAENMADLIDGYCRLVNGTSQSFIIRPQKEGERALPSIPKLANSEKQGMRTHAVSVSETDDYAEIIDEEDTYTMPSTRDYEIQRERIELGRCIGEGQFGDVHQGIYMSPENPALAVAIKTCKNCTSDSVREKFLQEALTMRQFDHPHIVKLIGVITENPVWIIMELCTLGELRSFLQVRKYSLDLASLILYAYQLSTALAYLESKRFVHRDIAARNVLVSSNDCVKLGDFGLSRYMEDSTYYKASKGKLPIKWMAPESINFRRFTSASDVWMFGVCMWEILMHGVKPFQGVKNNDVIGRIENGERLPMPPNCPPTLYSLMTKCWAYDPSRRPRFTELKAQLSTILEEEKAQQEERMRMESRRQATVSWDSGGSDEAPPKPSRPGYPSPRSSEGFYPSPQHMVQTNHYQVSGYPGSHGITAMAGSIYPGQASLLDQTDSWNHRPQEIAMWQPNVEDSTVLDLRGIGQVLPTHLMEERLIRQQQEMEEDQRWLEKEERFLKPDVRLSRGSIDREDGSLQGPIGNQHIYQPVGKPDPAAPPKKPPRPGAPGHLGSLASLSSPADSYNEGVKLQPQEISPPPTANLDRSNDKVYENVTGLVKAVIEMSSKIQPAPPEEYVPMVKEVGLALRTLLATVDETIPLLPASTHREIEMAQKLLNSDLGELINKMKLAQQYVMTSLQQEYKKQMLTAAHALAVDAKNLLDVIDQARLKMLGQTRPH

Structure (SMILES): CCOP(=O)(Cc1ccc(Nc2ncc(C(F)(F)F)c(Nc3ccc([C@H]4CC[C@H](O)CC4)c4c3C(=O)N(C)C4)n2)cn1)OCC [Example 260, Diethyl [(5-{[4-{[7-(trans-4-hydroxycyclohexyl)-2-methyl-3-oxo-2,3-dihydro-1H-isoindol-4-yl]amino}-5-(trifluoromethyl)pyrimidin-2-yl]amino}pyridin-2-yl)methyl]phosphonate]
IC50 (FAK [1]; [5]): < 1000 nM
IC50 (FAK [2]): < 1000 nM
IC50 (FAK [3]; [6]): < 1000 nM

IC50 (FAK [1]; [5]): < 1000 nM
IC50 (FAK [2]): < 1000 nM
IC50 (FAK [3]; [6]): < 1000 nM
Structure (SMILES): CNC(=O)c1ccccc1Nc1nc(Nc2ccc(CP(C)(=O)OCCOC)cc2OC)ncc1C(F)(F)F (stereo not drawn) [Example 216, 2-Methoxyethyl (3-methoxy-4-{[4-{[2-(methylcarbamoyl)phenyl]amino}-5-(trifluoromethyl)pyrimidin-2-yl]amino}benzyl)methylphosphinate]

Structure (SMILES): CCOP(=O)(OCC)c1ccc(Nc2ncc(C(F)(F)F)c(NCc3cccnc3N(C)S(C)(=O)=O)n2)cc1 [Example 2, Diethyl [4-({4-[({2-[methyl(methylsulfonyl)amino]pyridin-3-yl}methyl)amino]-5-(trifluoromethyl)pyrimidin-2-yl}amino)phenyl]phosphonate]
IC50 (FAK [4]): 1000 to 10000 nM

Structure (SMILES): CCOP(=O)(Cc1ccc(Nc2ncc(C(F)(F)F)c(Nc3cccc4[nH]cc(C)c(=O)c34)n2)c(OC)c1)OCC [Example 204, Diethyl [3-methoxy-4-({4-[(3-methyl-4-oxo-1,4-dihydroquinolin-5-yl)amino]-5-(trifluoromethyl)pyrimidin-2-yl}amino)benzyl]phosphonate]
IC50 (FAK [1]; [5]): < 1000 nM
IC50 (FAK [2]): < 1000 nM
IC50 (FAK [3]; [6]): < 1000 nM

Structure (SMILES): CCOP(=O)(Cc1ccc(Nc2ncc(C(F)(F)F)c(Nc3ccc(-c4cnn(CCCO)c4)c4c3C(=O)N(C)C4)n2)cc1)OCC [Example 156, Diethyl (4-{[4-({7-[1-(3-hydroxypropyl)-1H-pyrazol-4-yl]-2-methyl-3-oxo-2,3-dihydro-1H-isoindol-4-yl}amino)-5-(trifluoromethyl)pyrimidin-2-yl]amino}benzyl)phosphonate]
IC50 (FAK [1]; [5]): < 1000 nM
IC50 (FAK [2]): < 1000 nM
IC50 (FAK [3]; [6]): < 1000 nM

Structure (SMILES): CCOP(=O)(Cc1ccc(Nc2ncc(C(F)(F)F)c(Nc3ccccc3C(=O)NC)n2)c(OC)c1)OCC [Ex. 53, diethyl (3-methoxy-4-{[4-{[2-(methylcarbamoyl)phenyl]amino}-5-(trifluoromethyl)pyrimidin-2-yl]amino}benzyl)phosphonate]
IC50 (FAK [1]; MIA-PaCa2 cells on fibronectin, 2 h, no plasma, read-out: Mean FAK Cell Mechanistic IC50 MIA-PaCa2): < 1000 nM
IC50 (FAK [1]; MIA-PaCa2 cells, + 50% human plasma, read-out: Mean FAK Cell Mechanistic IC50 + 50% hP MIA-PaCa2): < 1000 nM
IC50 (FAK [2]): < 1000 nM
IC50 (FAK [3]; U87MG FAK Cell Mech IC50 +hP, + human plasma): 160 nM
IC50 (FAK [3]; U87MG FAK Cell Mech IC50 +mP, + mouse plasma): 70 nM

Structure (SMILES): CCOP(=O)(Cc1ccc(Nc2ncc(C(F)(F)F)c(Nc3ccc(C4CCC(N(C)CC)CC4)c4c3C(=O)N(C)C4)n2)c(OC)c1)OCC (stereo not drawn) [Example 236, Diethyl [4-({4-[(7-{4-[ethyl(methyl)amino]cyclohexyl}-2-methyl-3-oxo-2,3-dihydro-1H-isoindol-4-yl)amino]-5-(trifluoromethyl)pyrimidin-2-yl}amino)-3-methoxybenzyl]phosphonate]
IC50 (FAK [1]; [5]): < 1000 nM
IC50 (FAK [2]): < 1000 nM
IC50 (FAK [3]; [6]): < 1000 nM

Structure (SMILES): CCOP(=O)(Cc1ccc(Nc2ncc(C(F)(F)F)c(Nc3cccnc3C(=O)NC)n2)c(OC)c1)OCC [Example 231, Diethyl (3-methoxy-4-{[4-{[2-(methylcarbamoyl)pyridin-3-yl]amino}-5-(trifluoromethyl)pyrimidin-2-yl]amino}benzyl)phosphonate]
IC50 (FAK [1]; [5]): < 1000 nM
IC50 (FAK [2]): < 1000 nM
IC50 (FAK [3]; [6]): < 1000 nM

Structure (SMILES): CCOP(=O)(Cc1ccc(Nc2ncc(C(F)(F)F)c(Nc3cccc4c3C(=O)N(C)C4C)n2)c(OC)c1)OCC (stereo not drawn) [Example 158, Diethyl [4-({4-[(1,2-dimethyl-3-oxo-2,3-dihydro-1H-isoindol-4-yl)amino]-5-(trifluoromethyl)pyrimidin-2-yl}amino)-3-methoxybenzyl]phosphonate]
IC50 (FAK [1]; [5]): < 1000 nM
IC50 (FAK [2]): < 1000 nM
IC50 (FAK [3]; [6]): < 1000 nM

Structure (SMILES): CCOP(=O)(Cc1ccc(Nc2ncc(C(F)(F)F)c(Nc3ccc([C@H]4CC[C@](C)(C(=O)O)CC4)c4c3C(=O)N(C)C4)n2)c(OC)c1)OCC [Example 282, trans-4-(7-{[2-({4-[(Diethoxyphosphoryl)methyl]-2-methoxyphenyl}amino)-5-(trifluoromethyl)pyrimidin-4-yl]amino}-2-methyl-1-oxo-2,3-dihydro-1H-isoindol-4-yl)-1-methylcyclohexanecarboxylic acid]
IC50 (FAK [2]): < 1000 nM
IC50 (FAK [3]; [6]): < 1000 nM

Structure (SMILES): CCOP(=O)(Cc1ccc(Nc2ncc(C(F)(F)F)c(Nc3ccccc3C(=O)NC)n2)c(OC)c1F)OCC [Example 147, Diethyl (2-fluoro-3-methoxy-4-{[4-{[2-(methylcarbamoyl)phenyl]amino}-5-(trifluoromethyl)pyrimidin-2-yl]amino}benzyl)phosphonate]
IC50 (FAK [1]; [5]): < 1000 nM
IC50 (FAK [2]): < 1000 nM
IC50 (FAK [3]; [6]): < 1000 nM

Structure (SMILES): CCOP(=O)(Cc1ccc(Nc2ncc(C(F)(F)F)c(Nc3cccc4c3c(=O)c(C)cn4CP(=O)(OCC)OCC)n2)c(OC)c1)OCC [Example 303]
IC50 (FAK [2]): < 1000 nM
IC50 (FAK [3]; [6]): < 1000 nM

Structure (SMILES): CCOP(=O)(Cc1ccc(Nc2ncc(C(F)(F)F)c(Nc3ccccc3C(=O)NOC)n2)c(OC)c1)OCC [Example 259, Diethyl (3-methoxy-4-{[4-{[2-(methoxycarbamoyl)phenyl]amino}-5-(trifluoromethyl)pyrimidin-2-yl]amino}benzyl)phosphonate]
IC50 (FAK [2]): < 1000 nM
IC50 (FAK [3]; [6]): < 1000 nM

Structure (SMILES): CCOP(=O)(CC)Cc1ccc(Nc2ncc(C(F)(F)F)c(Nc3ccc([C@H]4CC[C@H](O)CC4)c4c3C(=O)N(C)C4)n2)cc1 (stereo partly drawn) [Example 202, Ethyl ethyl(4-{[4-{[7-(trans-4-hydroxycyclohexyl)-2-methyl-3-oxo-2,3-dihydro-1H-isoindol-4-yl]amino}-5-(trifluoromethyl)pyrimidin-2-yl]amino}benzyl)phosphinate]
IC50 (FAK [2]): < 1000 nM
IC50 (FAK [3]; [6]): < 1000 nM

Structure (SMILES): CCOP(=O)(Cc1ccc(Nc2ncc(C(F)(F)F)c(Nc3ccc([C@H]4CC[C@H](O)CC4)c4c3C(=O)N(C)C4)n2)nc1)OCC [Example 309, Diethyl [(6-{[4-{[7-(trans-4-hydroxycyclohexyl)-2-methyl-3-oxo-2,3-dihydro-1H-isoindol-4-yl]amino}-5-(trifluoromethyl)pyrimidin-2-yl]amino}pyridin-3-yl)methyl]phosphonate]
IC50 (FAK [1]; [5]): < 1000 nM
IC50 (FAK [2]): < 1000 nM
IC50 (FAK [3]; [6]): < 1000 nM

Structure (SMILES): CCOP(=O)(Cc1ccc(Nc2ncc(C(F)(F)F)c(Nc3ccc([C@H]4CC[C@H](O)CC4)cc3C(=O)NC)n2)c(OC)c1)OCC [Example 141, Diethyl (4-{[4-{[4-(trans-4-hydroxycyclohexyl)-2-(methylcarbamoyl)phenyl]amino}-5-(trifluoromethyl)pyrimidin-2-yl]amino}-3-methoxybenzyl)phosphonate]
IC50 (FAK [1]; [5]): < 1000 nM
IC50 (FAK [2]): < 1000 nM
IC50 (FAK [3]; [6]): < 1000 nM

Structure (SMILES): CCOP(=O)(Cc1ccc(Nc2ncc(C(F)(F)F)c(Nc3cccc4c3c(=O)c(C)cn4CC(=O)O)n2)c(OC)c1)OCC [Example 302]
IC50 (FAK [2]): < 1000 nM
IC50 (FAK [3]; [6]): 1000 to 10000 nM

Structure (SMILES): CCOP(=O)(Cc1ccc(Nc2ncc(C(F)(F)F)c(Nc3ccc([C@H]4CC[C@H](O)CC4)cc3C(=O)NC)n2)cc1)OCC [Example 139, Diethyl (4-{[4-{[4-(trans-4-hydroxycyclohexyl)-2-(methylcarbamoyl)phenyl]amino}-5-(trifluoromethyl)pyrimidin-2-yl]amino}benzyl)phosphonate]
IC50 (FAK [1]; [5]): < 1000 nM
IC50 (FAK [2]): < 1000 nM
IC50 (FAK [3]; [6]): 1000 to 10000 nM

Structure (SMILES): CCOP(=O)(Cc1ccc(Nc2ncc(C(F)(F)F)c(Nc3ccc([C@H]4CC[C@H](C(=O)O)CC4)c4[nH]cc(C)c(=O)c34)n2)c(OC)c1)OCC [Example 307, Trans-4-(5-{[2-({4-[(diethoxyphosphoryl)methyl]-2-methoxyphenyl}amino)-5-(trifluoromethyl)pyrimidin-4-yl]amino}-3-methyl-4-oxo-1,4-dihydroquinolin-8-yl)cyclohexanecarboxylic acid]
IC50 (FAK [2]): < 1000 nM
IC50 (FAK [3]; [6]): 1000 to 10000 nM

IC50 (FAK [1]; [5]): < 1000 nM
IC50 (FAK [2]): < 1000 nM
IC50 (FAK [3]; [6]): < 1000 nM
Structure (SMILES): CCCP(=O)(CCC)c1cccc(Nc2ncc(C(F)(F)F)c(Nc3ccc([C@H]4CC[C@H](O)CC4)c4c3C(=O)N(C)C4)n2)c1 [Example 171, 7-{[2-{[3-(Dipropylphosphoryl)phenyl]amino}-5-(trifluoromethyl)pyrimidin-4-yl]amino}-4-(trans-4-hydroxycyclohexyl)-2-methyl-2,3-dihydro-1H-isoindol-1-one]
